This is an account of results in patent publication US20110021455A1, “STERILISED SUCRALFATE GEL” (PIERRE FABRE DERMO-COSMETIQUE, priority 2008, published 2011).

Data set [1] in a line: Sterilisation by gamma rays. It counts as physicochemical. The following applies: in the form of powder and gel; composition yellows. From the text:
In fact, after various tests, it seemed that sucralfate, both in the form of powder and gel, is unstable during sterilisation by gamma rays since the composition yellows.

A short description of data set [2]: Sterilisation with ethylene oxide. In kind it is physicochemical. The following applies: requires a long and costly desorption phase.

As for sucralfate, the “stability during sterilisation by gamma rays” value in data set [1] was “unstable”. Also, the “adsorption of ethylene oxide on sucralfate during sterilisation” value in data set [2] is listed as “substantial adsorption”.
